Results from US20090099135A1, “Pest control compositions and methods” (priority 2007, published 2009).

What was measured:
tyramine receptor = target: T1, tyramine receptor (Drosophila melanogaster, UniProt P22270); assay: Whole cell 3H-tyramine binding in Schneider cells transfected with tyramine receptor
T1 construct: oligonucleotides that are used to amplify the open reading frame of the Drosophila tyramine receptor (TyrR); expressed in transfected cells
T1 sequence (P22270 27-601): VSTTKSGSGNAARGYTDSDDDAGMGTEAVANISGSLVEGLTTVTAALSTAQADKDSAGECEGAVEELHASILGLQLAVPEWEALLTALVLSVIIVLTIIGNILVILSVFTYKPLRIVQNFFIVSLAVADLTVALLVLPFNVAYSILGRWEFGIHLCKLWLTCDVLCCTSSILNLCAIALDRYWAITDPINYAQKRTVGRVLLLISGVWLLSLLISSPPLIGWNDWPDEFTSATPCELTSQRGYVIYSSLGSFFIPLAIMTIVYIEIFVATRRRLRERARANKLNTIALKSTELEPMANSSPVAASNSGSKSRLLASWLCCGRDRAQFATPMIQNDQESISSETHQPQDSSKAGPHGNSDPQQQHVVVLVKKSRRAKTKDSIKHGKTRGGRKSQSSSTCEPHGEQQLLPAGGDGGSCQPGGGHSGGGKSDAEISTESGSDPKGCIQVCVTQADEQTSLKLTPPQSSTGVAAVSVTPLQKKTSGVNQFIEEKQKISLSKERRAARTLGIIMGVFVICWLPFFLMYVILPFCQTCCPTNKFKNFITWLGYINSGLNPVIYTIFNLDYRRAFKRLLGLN
Experimental: Cells transfected with the tyramine receptor (about 1×10^6 cells/ml) are cultured in each well of a multi-well plate. About 24 hours after plating the cells, the medium is withdrawn and replaced with about 1 ml insect saline (about 23 C). Different concentrations of ^3H-tyramine (about 0.1-10 nM) are added with and without about 10 μM unlabeled tyramine and incubated at room temperature (RT). After about a 20 minute incubation, the reaction is stopped by rapid aspiration of the saline and at least one wash with about 2 ml insect saline (about 23 C). Cells are solubilized in about 300 μl 0.3M NaOH for about 20 min at RT. Solubilized cells are transferred into about 4 ml Liquid Scintillation Solution (LSS) and vigorously vortexed for about 30 sec before counting the radioactivity using a Liquid Scintillation P-counter (Beckman, Model LS1801) (LSC).
Receptor specific binding data is expressed as fmol specific binding per 1×10^6 cells and measured as a function of ^3H-tyramine concentration. Specific binding values are calculated as the difference between values in the absence of and values in the presence of about 10 μM unlabeled tyramine. The maximum specific binding occurs at about 5 nM ^3H-tyramine.

TyrR = target: T2, TyrR (Drosophila melanogaster, UniProt P22270); assay: TyrR competition binding assay (% binding inhibition)
T2 sequence (P22270 27-601): T1 sequence (P22270 27-601)
Experimental: When the chemical(s) and compound(s) are combined to provide the compositions of the present invention, there is a synergistic effect.
(§1) To determine the affinities of several ligands for TyrR, increasing concentration of several compounds are tested for their ability to inhibit binding of about 2 nM ^3H-tyramine. For both saturation and inhibition assays total and non-specific binding is determined in the absence and presence of about 10 μM unlabeled-tyramine, respectively. Receptor binding reactions are incubated for about 1 hour at room temperature (RT) in restricted light. Reactions are terminated by filtration through GF/C filters (VWR), which have been previously soaked in about 0.3% polyethyleneimine (PEI). The filters are washed one time with about 4 ml ice cold Tris buffer and air dried before retained radioactivity is measured using LSC. Binding data is analyzed by curve fitting (GraphPad software, Prism).

[1] = Interim field plot ratings, South Georgia: flower damage rating; assay type: in vivo; conditions: rate not given; 1 wk after treatment
[2] = tested on: Blattella germanica (German cockroaches); assay: Pesticidal effect against German cockroaches (KD and 100% kill time); assay type: in vivo
Experimental: With reference to Table 15, the pesticidal effect against Blattella germanica (German cockroaches) was determined for DM, Blend 12, and the composition including DM and Blend 12.
A synergistic effect was shown for the combination treatment that results in an average KD of the insects in 5 sec, and 100% killing of the insects in 17 seconds.

aphids (on cotton) = assay: Interim field plot ratings, South Georgia: aphids on cotton; assay type: in vivo; conditions: rate not given; 1 wk after treatment
Whitefly (on zucchini) = assay: Interim field plot ratings, South Georgia: whitefly on zucchini; assay type: in vivo; conditions: rate not given; 1 wk after treatment
Thrips (on cotton) = assay: Interim field plot ratings, South Georgia: thrips on cotton; assay type: in vivo; conditions: rate not given; 1 wk after treatment
Periplaneta americana = assay: Pesticidal effect (mortality) against Periplaneta americana; assay type: in vivo; conditions: Blend 23 5%
Experimental: With reference to FIG. 6A, the pesticidal effect against Periplaneta americana was determined for Blend 23 (labeled “HL1”) and the composition including CL and Blend 23.
With reference to FIG. 6B, the pesticidal effect against Periplaneta americana was determined for Blend 23 (labeled “HL1”) and the composition including Imidacloprid and Blend 23.

Drosophila sp. = assay: Pesticidal effect (KD) against Drosophila sp.; assay type: in vivo; conditions: FIG. 4D; Imidacloprid 50 ppm; Blend 23 2.5%; combination of both
Experimental: Similarly, with reference to FIG. 4D, the pesticidal effect against Drosophila sp. was determined for Blend 23 (labeled “HL1”) and the composition including Imidacloprid and Blend 23.

Aedes aegypti = assay: Pesticidal effect (KD) against Aedes aegypti; assay type: in vivo
Experimental: With reference to FIG. 4A, the pesticidal effect against Aedes aegypti was determined for Blend 23 (labeled “HL1”) and the composition including CL and Blend 23.
Similarly, with reference to FIG. 4B, the pesticidal effect against Aedes aegypti was determined for Blend 23 (labeled “HL1”) and the composition including CL and Blend 23.
Similarly, with reference to FIG. 4C, the pesticidal effect against Aedes aegypti was determined for Blend 23 (labeled “HL1”) and the composition including Imidacloprid and Blend 23.

tyramine receptor (TyrR) [3] = target: T3, tyramine receptor (TyrR) (Drosophila melanogaster, UniProt P22270); assay: Saturation binding of 3H-tyramine to membranes of Schneider cells expressing tyramine receptor; conditions: membranes of cells stably transfected with pAcB-TyrR
T3 construct: oligonucleotides that are used to amplify the open reading frame of the Drosophila tyramine receptor (TyrR); expressed in transfected cells
T3 sequence (P22270 27-601): T1 sequence (P22270 27-601)
Experimental: To study the kinetics of the tyramine receptor in stably transfected cells with pAcB-TyrR, crude membrane fractions are prepared from the transfected cells and used to calculate the equilibrium dissociation constant (Kd), Maximum Binding Capacity (Bmax), equilibrium inhibitor dissociation constant (Ki) and EC50 (effective concentration at which binding is inhibited by 50%). A preliminary study to determine the optimum concentration of membrane protein for receptor binding activity is performed. In this study, different concentrations of protein (about 10-50 μg/reaction) are incubated in about 1 ml binding buffer (50 mM Tris, pH 7.4, 5 mM MgCl2 and 2 mM ascorbic acid). The reaction is initiated by the addition of about 5 nM ^3H-tyramine with and without about […] unlabeled tyramine. After about 1 hr incubation at room temperature, reactions are terminated by filtration through GF/C filters (VWR), which have been previously soaked in about 0.3% polyethyleneimine (PEI). The filters are washed one time with about 4 ml ice cold Tris buffer and air dried before the retained radioactivity is measured using LSC. […]
To determine Bmax and Kd values for tyramine receptor (TyrR) in membranes expressing TyrR, saturation binding experiments are performed. […] Binding data is analyzed by curve fitting (GraphPad software, Prism) and the Kd for tyramine binding to its receptor is determined. […]

Culex quinquefasciatus = assay: Repellency effect against Culex quinquefasciatus (biting counts on volunteers' legs); assay type: in vivo
Experimental: The repellency of exemplary compositions of the present invention are compared to the repellency of their individual ingredients, and to a non-treated control. Southern house mosquitoes, Culex quinquefasciatus, are obtained as test organisms. Multiple human evaluators test each treatment in a replicated experiment. Experimentation is conducted in a laboratory using multiple-chambered, plexiglass modules, each chamber stocked with about 2-10 day-old colony-reared female mosquitoes. The modules are equipped with sliding doors to expose the mosquitoes to the legs of three volunteers. Treatments are applied at about 28.6 μl to 12 cm^2 rectangular sections of skin located directly beneath the chamber openings. Each volunteer conducts 2-minute biting counts for each treatment at five time intervals: 0, 1, 2, 4 & 6 hours post-treatment. New mosquitoes are stocked into the chamber for each time interval. Ambient temperature and humidity data is recorded with a HOBO datalogger. Percent repellency is determined according to the following formula: Control−Treatment/Control X 100.

tyramine receptor (TyrR) [4] = target: T3, tyramine receptor (TyrR); assay: Inhibition binding of 3H-tyramine to membranes of Schneider cells expressing tyramine receptor; conditions: compared with tyramine
Experimental: To study the kinetics of the tyramine receptor in stably transfected cells with pAcB-TyrR, crude membrane fractions are prepared from the transfected cells and used to calculate the equilibrium dissociation constant (Kd), Maximum Binding Capacity (Bmax), equilibrium inhibitor dissociation constant (Ki) and EC50 (effective concentration at which binding is inhibited by 50%). A preliminary study to determine the optimum concentration of membrane protein for receptor binding activity is performed. In this study, different concentrations of protein (about 10-50 μg/reaction) are incubated in about 1 ml binding buffer (50 mM Tris, pH 7.4, 5 mM MgCl2 and 2 mM ascorbic acid). The reaction is initiated by the addition of about 5 nM ^3H-tyramine with and without about […] unlabeled tyramine. After about 1 hr incubation at room temperature, reactions are terminated by filtration through GF/C filters (VWR), which have been previously soaked in about 0.3% polyethyleneimine (PEI). The filters are washed one time with about 4 ml ice cold Tris buffer and air dried before the retained radioactivity is measured using LSC. Binding data is analyzed by curve fitting (GraphPad software, Prism). […] Therefore, about 10 μg protein/reaction is used.
as §1

NCCc1ccc(O)cc1 [Tyramine (TA), Tyramine]
response of untransfected cells (tyramine receptor; concentrations as high as about 100 μM): do not respond | % TyrR Binding Inhibition (TyrR): 75%

CC1(C)[C@H](C(=O)O[C@H](C#N)c2cccc(Oc3ccccc3)c2)[C@@H]1C=C(Br)Br [DM, deltamethrin]
Flower damage (1-5 rating scale; 1 = no damage) [1]: 2.2 | 100% Kill (time) ([2]; Example 4, DM 0.037 mg/cm^2, Blend 12 1.9 mg/cm^2): 15 min | 100% Kill (time) ([2]; Table 16, DM 0.037 mg/cm^2): 12 min | % TyrR Binding Inhibition (TyrR): 10% | aphids (on cotton) Adults, insect count (aphids (on cotton)): 15 | aphids (on cotton) Nymph, insect count (aphids (on cotton)): 26 | Whitefly (on zucchini) Adult, insect count (Whitefly (on zucchini)): 18 | Whitefly (on zucchini) Nymph, insect count (Whitefly (on zucchini)): 142 | Thrips (on cotton), insect count (Thrips (on cotton)): 13

O=[N+]([O-])NC1=NCCN1Cc1ccc(Cl)nc1 [Imidacloprid, 1-[(6-Chloro-3-pyridinyl)methyl]-N-nitro-2-imidazolidinimine]
Flower damage (1-5 rating scale; 1 = no damage) [1]: 2.0 | mortality 30 minutes post-treatment (Periplaneta americana; FIG. 6B, Imidacloprid alone 0.05%, 0.033%, 0.01%, Imidacloprid 0.033% combined with 5% Blend 23): no mortality | aphids (on cotton) Adults, insect count (aphids (on cotton)): 0.3 | aphids (on cotton) Nymph, insect count (aphids (on cotton)): 1.6 | KD of target insect at 30 seconds post-treatment (Drosophila sp.): 0% | KD of target insect at 30 seconds post-treatment (Aedes aegypti; FIG. 4C, Imidacloprid 250 ppm, Blend 23 2.5%, combination of both): 20% | KD of target insect (Aedes aegypti; FIG. 5, Imidacloprid 500 ppm, B5028 5%, combination of both): no KD | Whitefly (on zucchini) Adult, insect count (Whitefly (on zucchini)): 16 | Whitefly (on zucchini) Nymph, insect count (Whitefly (on zucchini)): 5 | Thrips (on cotton), insect count (Thrips (on cotton)): 9

NCCc1ccc(O)cc1 [Blend 3H-tyramine, ^3H-tyramine]
concentration at which maximum specific binding occurs (tyramine receptor; whole transfected cells): about 5 nM | Bmax (tyramine receptor (TyrR) [3]): about 0.679 μmol/mg protein | Kd (tyramine receptor (TyrR) [3]): ~1.26 nM

CCN(CC)C(=O)c1cccc(C)c1 [DEET, N,N-DIETHYL-3-METHYLBENZAMIDE]
Percent repellency, 0 (Culex quinquefasciatus; 0 hours post-treatment): 40% | Percent repellency, 1 Hour (Culex quinquefasciatus; 1 hour post-treatment): 20% | Percent repellency, 2 Hours (Culex quinquefasciatus; 2 hours post-treatment): 10% | Percent repellency, 4 Hours (Culex quinquefasciatus; 4 hours post-treatment): 5% | Percent repellency, 6 Hours (Culex quinquefasciatus; 6 hours post-treatment): 0% | Activity Ratio (repellency at 1 hour) (Culex quinquefasciatus; effect of composition (5% DEET and 95% Blend 9) divided by effect of comparison composition): (1.00)/(0.20) = 5.0 | Synergy Coefficient (repellency at 1 hour) (Culex quinquefasciatus; of composition (5% DEET and 95% Blend 9) relative to comparison composition): 100

CN/C(=N\[N+](=O)[O-])NCc1cnc(Cl)s1 [CL, clothianidin]
mortality 30 minutes post-treatment (Periplaneta americana; FIG. 6A, CL 0.05%, combination of both): no mortality | KD of target insect (Aedes aegypti; FIG. 4A, CL alone 500 ppm, CL 167 ppm combined with 2.5% Blend 23): no KD | KD of target insect (Aedes aegypti; FIG. 4B, CL alone 250 ppm, CL 167 ppm combined with 2.5% Blend 23): no KD

NCCc1c[nH]c2ccc(O)cc12 [serotonin, Serotonin]
efficiency at displacing 3H-tyramine binding (tyramine receptor (TyrR) [4]): less efficient than tyramine

NCC(O)c1ccc(O)cc1 (stereo not shown) [Octopamine]
efficiency at displacing 3H-tyramine binding (tyramine receptor (TyrR) [4]): less efficient than tyramine

NCCc1ccc(O)c(O)c1 [dopamine, Dopamine]
efficiency at displacing 3H-tyramine binding (tyramine receptor (TyrR) [4]): less efficient than tyramine
